Data from patent publication JP2017105729A, “ミトコンドリア病の治療剤” (Tohoku University NUC, priority 2015, dated 2017).

Experiments:
[1] = tested on: Leber disease patient-derived fibroblasts [Leber病患者由来線維芽細胞]; assay: Suppression of oxidative-stress (BSO) induced cell death of Leber disease patient fibroblasts: cell viability (MTT assay, Cell Counting Kit-8); assay type: cell-based; settings: for minimal effective concentration: Fibroblast, BSO 100 μM 24 h, then compound (0.1, 0.3, 1, 3, 10 μM) 48 h, n=4, Fig. 1B, read-out: concentration at which the decrease in cell viability is suppressed
[2] = tested on: erythropoietin, human liver cancer cell line Hep3B [エリスロポエチン産生ヒト肝臓癌細胞株Hep3B]; assay: Erythropoietin production in Hep3B cells in the presence of TNFα (ELISA); assay type: cell-based; settings: compound 3 μM with TNFα 220 μg/mL, 24 h, 20% O2; relative to DMSO; Fig. 2
[3] = tested on: erythropoietin [エリスロポエチン]; settings: reported in Patent Literature 2; cited from earlier work
[4] = tested on: mitochondrial disease [ミトコンドリア病]; settings: reported in Patent Literature 2; cited from earlier work
[5] = tested on: Leber disease patient-derived fibroblasts [Leber病患者由来線維芽細胞]; assay: Suppression of cytotoxicity in BSO-treated Leber disease patient fibroblasts: released LDH activity (Cytotoxicity LDH Assay Kit-WST); assay type: cell-based; settings: BSO 100 μM 24 h, then compound (0.1, 0.3, 1, 3, 10 μM) 48 h, n=4; LDH release; Fig. 1C
[6] = tested on: mitochondrial encephalomyopathy patients [ミトコンドリア脳筋症患者]; settings: cited from earlier work

CCCCS(=N)(=O)CC[C@H](N)C(=O)O (stereo partly drawn) [BSO, L-Buthionine sulphoximine]
cell viability ([1]; BSO 100 μM (glutathione synthesis inhibitor) alone, Fig. 1A): 細胞生存率が低下する

O=C(CC(C(=O)O)c1c[nH]c2cccc(Cl)c12)c1ccc(F)cc1F (centres unmarked) [本件化合物#5, 2−(4−クロロ−1H−インドール−3−イル)−4−(2,4−ジフルオロフェニル)−4−オキソブタン酸]
erythropoietin expression level [2]: 増加する

O=C(CC(C(=O)O)c1c[nH]c2ccccc12)c1ccc(F)cc1 (centres unmarked) [比較例化合物#4, 4−(4−フルオロフェニル)−2−(1H−インドール−3−イル)−4−オキソ−ブタン酸]
effect of enhancing erythropoietin expression / promoting erythropoietin production [3]: エリスロポエチン産生の促進効果 | minimal effective concentration [1]: ≥ 10 µM | therapeutic effect on mitochondrial disease [4]: ミトコンドリア病の治療効果 | concentration at which the cytotoxicity level is lowered [5]: ≥ 10 µM

CC1=NN(c2ccccc2)C(=O)C1 [エダラボン, 3−メチル−1−フェニル−2−ピラゾリン−5−オン]
effect of stopping enlargement of infarct [6]: 梗塞の拡大を停止する効果 | effect of suppressing edema [6]: 浮腫を抑制する効果

O=C(CC(C(=O)O)c1c[nH]c2ccccc12)c1ccc(F)cc1F (centres unmarked) [4−(2,4−ジフルオロフェニル)−2−(1H−インドール−3−イル)−4−オキソ−ブタン酸]
effect of enhancing erythropoietin expression / promoting erythropoietin production [3]: エリスロポエチン発現増強効果 | therapeutic effect on mitochondrial disease [4]: ミトコンドリア病の治療効果

Cc1ccc2[nH]cc(C(CC(=O)c3ccc(F)cc3F)C(=O)O)c2c1 (centres unmarked) [本件化合物#6, 4−(2,4−ジフルオロフェニル)−2−(5−メチル−1H−インドール−3−イル)−4−オキソブタン酸]
erythropoietin expression level [2]: 増加する | minimal effective concentration [1]: ≥ 1 µM | concentration at which the cytotoxicity level is lowered [5]: ≥ 1 µM

O=C(CC(C(=O)O)c1c[nH]c2cc(F)ccc12)c1ccc(F)cc1F (centres unmarked) [本件化合物#1, 4−(2,4−ジフルオロフェニル)−2−(6−フルオロ−1H−インドール−3−イル)−4−オキソブタン酸]
erythropoietin expression level [2]: 増加する
